{
  "source": "paper PMC7929976",
  "about": "“Eriodictyol as a Potential Candidate Inhibitor of Sortase A Protects Mice From Methicillin-Resistant Staphylococcus aureus-Induced Pneumonia” (Frontiers in Microbiology, 2021)",
  "biological_target": "T1, Sortase A (SrtA) (Staphylococcus aureus, UniProt Q2FV99)",
  "T1 construct": "pET28a-SrtA, recombinant, nickel-purified",
  "T1 sequence (Q2FV99 whole entry)": "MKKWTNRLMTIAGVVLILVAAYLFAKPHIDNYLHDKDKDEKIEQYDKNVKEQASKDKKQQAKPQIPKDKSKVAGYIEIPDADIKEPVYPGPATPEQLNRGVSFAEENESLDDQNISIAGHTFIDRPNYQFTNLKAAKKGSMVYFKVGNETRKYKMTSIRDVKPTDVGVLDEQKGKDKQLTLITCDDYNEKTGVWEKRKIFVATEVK",
  "assay": "FRET cleavage assay with purified recombinant SrtA; reversible by dilution; binding supported by fluorescence quenching (KA […] L/mol)",
  "assay_type": "biochemical",
  "data": [
    {"compound": "O=C1C[C@@H](c2ccc(O)c(O)c2)Oc2cc(O)cc(O)c21", "note": "[eriodictyol]", "values": [
      {"measurement": "IC50", "result": 7.73, "unit": "µM"}
    ]}
  ]
}
